# According to US8715745B2 (priority 2009, dated 2014):
# Columns and labels:
# [1] = system: Septoria tritici isolate USA-184; experiment: In vitro fungitoxicity (growth inhibition) against Septoria tritici in copper-minus and copper-plus medium; assay type: cell-based; settings: CuCl2 1 μM without test compound
# Method: (§1) In vitro fungitoxicity assays against Septoria tritici were conducted using the copper-minus medium described in Example 5. Medium containing copper was prepared by adding CuCl2.2H2O to the copper-minus medium at 2 μM. Test compounds were dissolved in dimethylsulfoxide (DMSO) at 10 μg/mL and 1 μL aliquots were added to two wells of flat-bottomed 96-well microtiter plates. Copper-minus medium (100 μL) was added to one of the wells and copper-plus medium to the second well. Control wells, included for each medium, received 1 uL DMSO and 100 μL of medium.
# Septoria tritici isolate USA-184 was grown on potato dextrose agar at 18° C. under black lights for 3 days. A loopful of spores was transferred from the culture to a 15 mL tube containing 5 mL of sterile Chelex-treated water. The spores were centrifuged at 2000 rpm for 2 min, resuspended in 10 mL water, and centrifuged again. […] Microtiter plate wells containing test compound of DMSO (control) as described above were inoculated with 100 μL of this spore suspension and the plates incubated at 25° C. for 90 h before assessing fungal growth by measuring light scattering in a NepheloStar plate reader. Growth inhibition was determined by comparing growth in the presence of test compound with growth in control wells lacking test compound. […]
# Ustilago maydis = experiment: In vitro fungitoxicity (growth inhibition) against Ustilago maydis in copper-minus and copper-plus medium; assay type: cell-based; settings: for % Inhn. Plus copper Predicted: 1 μg/mL, Colby formula
# Method: as §1, with “against Ustilago maydis” for “against Septoria tritici”, “at 20” for “at 2”, “at 200” for “at 10”
# Ustilago maydis was grown in 50 mL potato dextrose broth with shaking at 25° C. for 24 h. A 10 mL aliquot of the culture was centrifuged at 2000 rpm for 2 min, resuspended in 10 mL of sterile Chelex 100-treated water, and centrifuged again. The spores were resuspended in copper-minus medium, and the suspension adjusted to a concentration of 1×10^5 spores per mL. Microtiter plate wells containing test compound of DMSO (control) as described above were inoculated with 100 μL of this spore suspension and the plates incubated at 25° C. for 48 h before assessing fungal growth by measuring light scattering in a NepheloStar plate reader. Growth inhibition was determined by comparing growth in the presence of test compound with growth in control wells lacking test compound.
# Results for growth inhibition by test compounds at 1 μg/mL in copper-plus medium (“% Inhn Plus Copper Observed”) were compared with predicted results (“% Inhn Plus Copper Predicted”) that were calculated using the formula set forth by S. R. Colby in Weeds 1967, 15, 20-22 based on results obtained for the same compounds in copper-minus medium (“% Inhn Minus Copper Observed”) and the inhibition attributed to copper chloride alone, as determined by comparing growth in copper-minus and copper-plus media without any test compound. Results illustrate that hydrazones and copper produce a synergistic fungitoxic effect towards Ustilago maydis.
# Phytophthora capsici = experiment: In vitro fungitoxicity (growth inhibition) against Phytophthora capsici in copper-minus AS and copper-plus AS medium; assay type: cell-based; settings: for % Inhn Plus copper Predicted: 0.050 μg/mL, Colby formula
# Method: In vitro fungitoxicity assays against Phytophthora capsici were conducted using the asparagine-sucrose (AS) medium described in Canadian Journal of Microbiology 1961, 7, 15-25, except that copper micronutrient, normally included as CuSO4, was omitted. The medium, termed “copper-minus AS”, was prepared by dissolving 2 g asparagine, 0.43 g KH2PO4, 0.3 g K2HPO4, 0.4 mL of a 0.5 mg/mL thiamine-HCl solution and 15 g sucrose in 1 liter of deionized water and treating the solution with 0.5 g Chelex 100 resin (Bio-Rad Analytical grade, 50-100 mesh, sodium form, cat#142-2822) by stirring at room temperature for 1 h. The pH was adjusted to 6.4, then MgSO4.7H2O (100 μg/mL), FeSO4.7H2O (1 μg/mL), CaCl2 (50 μg/mL), ZnSO4.7H2O (1 μg/mL), NaMoO4.2H2O (0.2 μg/mL) and MnCl2.4H2O (0.2 μg/mL) were added and the entire medium was sterilized by filtration. “Copper-plus AS” medium was prepared by adding CuCl2.2H2O to the copper-minus AS medium at 100 μM. Test compounds were dissolved in DMSO then dilutions in copper-minus AS and copper-plus AS media were prepared as 100 μL aliquots in flat-bottomed 96-well microtiter plates.
# Phytophthora capsici was grown on petri plates, 9 cm in diameter, containing 15 mL V-8 agar, pH 7.0, containing 200 mL V-8 juice, 4 g CaCO3, and 20 g agar per liter. Plates were inoculated with 7-mm plugs from a 1-week old culture, incubated at 25° C. in the dark for 3 days, and then placed under fluorescent lights for 4 days to induce sporulation. Zoospore release from sporangia was induced by adding 15 mL of sterile deionized water (which had been treated with Chelex 100 resin using 0.5 g resin per liter of water by stirring at room temperature for 1 h) to each plate, and incubating for 10 min at 25° C. followed by 20 min at 4° C. The plates were returned to 25° C. for 10 min and the aqueous suspension of released zoospores was recovered. The zoospore suspension was adjusted to 5×10^4 spores/mL by dilution into Chelex 100-treated water. Microtiter plates were inoculated with 100 μL of spore suspension and incubated at 25° C. for 48 h before assessing fungal growth by measuring light scattering in a NepheloStar plate reader. Growth inhibition was determined by comparing growth in the presence of test compound with growth in control wells lacking test compound.
# Results for growth inhibition by test compounds in copper-plus AS medium (“% Inhn Plus Copper Observed”) were compared with predicted values (“% Inhn Plus Copper Predicted”) that were calculated using the formula set forth by S. R. Colby in Weeds (1967), 15, 20-22 based on results obtained for the same compounds in copper-minus AS medium (“% Inhn Minus Copper Observed”) and the inhibition attributed to copper chloride alone, as determined by comparing growth in copper-minus AS and copper-plus AS media without any test compound across experiments. Results illustrate that hydrazones and copper produce a synergistic fungitoxic effect towards Phytophthora capsici.
# [2] = system: Staphylococcus aureus, Escherichia coli, Aspergillus niger and A. flavus; settings: literature report, Proceedings of the National Academy of Sciences, India 1991; cited from earlier work
# Phytophthora infestans = assay type: in vivo, Phytophthora infestans on tomato plant; settings: 50 ppm hydrazone with 50 μM CuCl2.2H2O, applied 24 h before inoculation, assessed 7 days after inoculation, tomato
# [3] = system: Leptosphaeria nodorum (LEPTNO); experiment: In vitro fungitoxicity (growth inhibition) against Leptosphaeria nodorum in copper-minus and copper-plus medium; assay type: cell-based; settings: 0.05 μg/mL, 72 h
# Method: In vitro fungitoxicity assays against Leptosphaeria nodorum (LEPTNO) were conducted using the liquid growth medium described by Coursen and Sisler (American Journal of Botany 1960, 47, 541-549) except that copper micronutrient, normally included as CuSO4, was omitted. The medium, termed “copper-minus”, was prepared by dissolving 10 g glucose, 1.5 g K2HPO4, 2 g KH2PO4 and 1 g (NH4)2SO4 in 1 liter of deionized water and treating the solution with 0.5 g Chelex 100 resin (Bio-Rad Analytical grade, 50-100 mesh, sodium form, cat#142-2822) by stirring at room temperature for 1 h. MgSO4.7H2O (0.5 g) was added, and stirring was continued for a further hour. Trace elements (minus CuSO4), and vitamins described by Coursen and Sisler were added from concentrated stock solutions and the entire medium was sterilized by filtration. Medium containing copper was prepared by adding CuCl2.2H2O to the copper-minus medium at 20 μM. […]
# LEPTNO was grown on potato dextrose agar in 9 cm diameter petri dishes for 7 days. […] Microtiter plates were inoculated with 100 μL of this spore suspension and the plates incubated at 25° C. for 72 h before assessing fungal growth by measuring light scattering in a NepheloStar plate reader. Growth inhibition was determined by comparing growth in the presence of test compound with growth in control wells lacking test compound. […]
compound,measurement,setting,value
"O.O.[Cl][Cu][Cl] [CuCl2, CuCl2.2H2O, reference compound]","% Inhibition, copper chloride alone",[1],0%
same,"% Inhibition, copper chloride alone",[1]; listed as copper chloride,no effect on growth
same,"% Inhn., copper chloride alone",Ustilago maydis; CuCl2 10 μM without test compound,11.9%
same,"% Inhn, copper chloride alone","Phytophthora capsici; CuCl2 50 uM without test compound, across experiments",4.5 ± 7.9%
O=C(N/N=C/c1c(Cl)ccc(Cl)c1O)c1cccc(Cl)c1 [Compound 25],% Inhn. Plus copper Predicted,Ustilago maydis,14.7%
same,% Inhn Plus copper Predicted,Phytophthora capsici,4.5%
O=C(NN=Cc1ccccc1O)c1ccccc1O [o-hydroxybenzaldehyde-N-salicyloylhydrazone],antimicrobial activity,[2],Antimicrobial activity has been reported
O=C(N/N=C/c1c(O)cccc1Cl)c1ccc([N+](=O)[O-])cc1 [Compound 50],% Inhn. Plus copper Predicted,Ustilago maydis,20.4%
same,% Inhn Plus copper Predicted,Phytophthora capsici,5.1%
O=C(N/N=C/c1cc(Cl)c(Cl)cc1O)c1ccccc1 [Compound 5],TLB % Control,Phytophthora infestans,66.1%
same,melting point,,206 to 208 °C
same,LEPTNO % Inhn. Plus Copper Observed,"[3]; copper-plus medium (CuCl2, 10 μM)",97.8%
same,inhibition of growth at 0.05 µg/mL,"[3]; Parastagonospora nodorum, copper-minus medium, read-out: LEPTNO % Inhn. Minus Copper Observed",0.1%
Cc1ccc(C(=O)N/N=C/c2ccc(Cl)c(Cl)c2O)c(O)c1 [Compound 20],% Inhn. Plus copper Predicted,Ustilago maydis,69.6%
same,% Inhn Plus copper Predicted,Phytophthora capsici,4.5%
O=C(N/N=C/c1cccc(Cl)c1O)c1cccc(Cl)c1 [Compound 58],% Inhn. Plus copper Predicted,Ustilago maydis,42.1%
same,% Inhn Plus copper Predicted,Phytophthora capsici,13.2%
